According to ChEMBL document CHEMBL5726789, “Substituted 6, 7-dialkoxy-3-isoquinoline derivatives as inhibitors of phosphodiesterase 10 (PDE 10A)” (2018):

molecular target: cAMP and cAMP-inhibited cGMP 3',5'-cyclic phosphodiesterase 10A (Homo sapiens, UniProt Q9Y233); assay: Homogenous Time-Resolved Fluorescence Resonance Energy Transfer (TR-FRET) Technology: The phosphodiesterase assay was developed using the LANCE® cAMP kit (PerkinElmer). The assay buffer contained HBSS with 5 mM HEPES, 0.1% BSA, and 1.5 mM MgCl2, pH 7.4. PDE10A (BPS Bioscience) was used at 200 pg/well (with a specific activity of 3200 pmole/min/μg with assay conditions: 10 mM Tris-HCl, pH 7.4, 10 mM MgCl2, 1 mM MnCl2, 200 μM cAMP, 2.5 kU 5′ nucleotidase, 37° C., 20 min) and PDE4D3 (BPS Bioscience) was used at 100 pg/well (with a specific activity of 32713 pmole/min/μg with assay conditions: 10 mM Tris-HCl, pH 7.4, 10 mM MgCl2, 1 mM MnCl2, 200 μM cAMP, 2.5 kU 5′ nucleotidase, 37° C., 20 min). The Biotin-cAMP tracer, supplied in 10 mmol/L Tris-HCl buffered (pH 8.0) salt solution with 1 mmol/L ethylenediaminetetraacetic acid (EDTA), 0.1% bovine serum albumin (BSA), and 0.05% sodium azide, is used at a dilution of 1/375. The assay detection mixture contained the LANCE Eu-W8044 labeled streptavidin 1/2250 (supplied in 50 mmol/L Tris-HCl buffered (pH 7.8) salt solution with 0.9% sodium chloride (NaCl), 0.1% BSA, and 0.05% sodium azide) and the Alexa Fluor® 647-anti cAMP antibody 1/200 (supplied in 50 mmol/L Tris-HCl buffered (pH 7.8) salt solution with 0.9% NaCl, 0.1% BSA, and 0.05% sodium azide). Chemical compounds were dissolved in DMSO (final concentration 2% (v/v)).
Sequence (Q9Y233 whole entry): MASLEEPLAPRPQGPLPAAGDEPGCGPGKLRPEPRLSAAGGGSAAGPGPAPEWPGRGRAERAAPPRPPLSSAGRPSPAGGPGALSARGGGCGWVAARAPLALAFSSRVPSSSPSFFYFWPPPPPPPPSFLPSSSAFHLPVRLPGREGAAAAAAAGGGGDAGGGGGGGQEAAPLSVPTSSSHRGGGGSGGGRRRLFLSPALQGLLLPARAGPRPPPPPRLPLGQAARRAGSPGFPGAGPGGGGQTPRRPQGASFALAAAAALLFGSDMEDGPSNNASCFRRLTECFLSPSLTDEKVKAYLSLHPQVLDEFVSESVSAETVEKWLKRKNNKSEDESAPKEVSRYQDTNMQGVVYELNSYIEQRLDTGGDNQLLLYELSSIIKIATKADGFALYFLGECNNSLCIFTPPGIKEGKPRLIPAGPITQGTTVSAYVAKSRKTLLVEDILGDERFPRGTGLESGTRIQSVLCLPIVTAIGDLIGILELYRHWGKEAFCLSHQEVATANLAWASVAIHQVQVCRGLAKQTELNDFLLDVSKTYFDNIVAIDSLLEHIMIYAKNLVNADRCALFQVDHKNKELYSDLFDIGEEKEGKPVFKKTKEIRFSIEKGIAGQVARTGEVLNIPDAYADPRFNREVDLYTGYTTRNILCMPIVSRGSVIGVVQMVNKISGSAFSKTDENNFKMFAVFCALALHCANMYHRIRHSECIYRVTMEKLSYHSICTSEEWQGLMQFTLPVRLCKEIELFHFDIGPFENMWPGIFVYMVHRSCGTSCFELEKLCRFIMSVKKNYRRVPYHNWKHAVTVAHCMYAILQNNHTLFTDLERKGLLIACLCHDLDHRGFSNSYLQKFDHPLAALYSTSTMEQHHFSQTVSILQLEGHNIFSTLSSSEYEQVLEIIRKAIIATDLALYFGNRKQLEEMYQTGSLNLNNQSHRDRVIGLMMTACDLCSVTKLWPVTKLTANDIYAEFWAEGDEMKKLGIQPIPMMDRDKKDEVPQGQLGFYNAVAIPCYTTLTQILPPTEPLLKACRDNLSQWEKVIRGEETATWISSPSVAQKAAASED

Structure (SMILES)	IC50
CCCc1ncc(Cc2cc3cc(OC)ccc3nc2OCC#N)c2cc(OC)c(OC)cc12	0.158 µM
CCCc1ncc(Cc2ccc3cccc(OC(C)(C)C(N)=O)c3n2)c2cc(OC)c(OC)cc12	0.059 µM
CCn1c2ccccc2c2cc(Cc3cncc4cc(OC)c(OC)cc34)ccc21	0.026 µM
